2 molecules from patent publication US20240390434A1, “PROBIOTIC ENHANCERS AND USES THEREOF” (Blis Technologies Limited, priority 2021, published 2024) can be followed below.

What all share (assay type): cell-based
Experiment [1] concerns S. sobrinus OMZ176. In words: Deferred antagonism assay, producer S. salivarius M18. As to conditions: Streptococcus sobrinus, read-out: Size of zone inhibition normalised to control, S. sobrinus OMZ176. The protocol: (§1) 1-2 producer strain colonies were transferred from a stock plate into 900 μL of suspension solution using a fresh cotton swab. Following this, suspensions were vortexed, and a sample was inoculated onto solid culture media using a fresh cotton swab. The inoculation was a streak that runs diametrically across the agar plate in a 1.5 cm wide strip. The plate was then incubated. Following incubation all visible colonies were removed by swabbing them from the agar surface. The plates were then treated with chloroform by dispensing 2 ml of chloroform onto 4 cm×4 cm piece of cloth and sealing the inverted agar plate on top for 30 minutes. The plates were then air dried for 30 minutes following chloroforming. 1-2 indicator strain colonies were then transferred from a stock plate into complementary suspension solution. The suspensions were then vortexed, and a sample was inoculated onto the same agar surface. These samples were streaked in a perpendicular direction to the initial producer streak.
(§2) Each indicator streak was prepared with fresh a suspension containing cells from a corresponding stock plate containing the indicator strain of interest. Indicator strains suspension samples were transferred using a fresh cotton swab. Results were measured by qualitatively reviewing the subsequent (if any) sizes of the zones of inhibition (ZOI) of indicator strain colony growth. A positive result is when there is a distinctive reduction or complete inhibition of indicator colony growth on the culture medium.
(§3) Method: CABCa agar plates were prepared with or without 0.5, 1.25, 1.7, 2.5, 3.3 and 5% galactose by the addition of 0.5% (w/v) calcium carbonate to solid CAB agar in bottles and then melted by autoclaving at 110° C. for 10 mins. Once cooled, filter sterilised solutions of the saccharides or distilled water were added and mixed and then 20 ml pipetted into petri dishes.
(§4) A deferred antagonism assay was conducted using K12 or M18 raw ingredient suspended in Todd Hewitt broth (THB). This was spread as a 1.2 cm streak containing approximately 1-2×10^6 cfu down the middle of a CABCa control or CABCa galactose supplemented test plate. After 18 hrs growth at 37° C. with 5% CO2, bacterial growth was removed, and the pH of the agar in the initial streak was measured and adjusted to a pH of 6.5-7.5 using 0.5M sodium carbonate pH11 before sterilizing the agar surface using chloroform vapor. Bacterial test strains were suspended in i-THB before being swabbed across the plates perpendicular to the initial streak. Plates were incubated for a further 18 hrs incubation at 37° C. with 5% CO2 before measuring (mm) any zones of inhibition for each test strain, […]

Experiment [2] deals with S. pyogenes M57. In words: Dose response deferred antagonism assay, producer K12. As to conditions: 0.1%, 1.0%, and 1.5% (w/v) galactose. The protocol: as §1, §2
(§5) CABCa agar plates containing various concentrations of saccharide were prepared according to the methods described in Method 1. Producer strains were transferred from stock agar plates into 900 μL THB using a fresh cotton swab. A plastic spread plater was cut to approximately 1.2 cm width and then dipped into ethanol and left to air dry to ensure sterility. A 100 μL sample of the producer strain suspension was then dispensed onto the agar surface in a straight line running diametrically across the agar surface in (approximately) 20 μL spots. The spots were spaced approximately 1.5 cm apart from each other. The plastic spreader was then used to evenly distribute the spots across the agar surface in a 1.5 cm wide strip. This step was taken to ensure an even producer streak was inoculated onto the agar surface and provided an approximate measure of the initial inoculum concentration. Separate plastic spreaders were used for samples containing different producer strains. The samples were left to soak into the agar surface until there was no visible liquid remaining on the agar surface (approximately 20 minutes). Following producer streak preparations, the deferred antagonism assay protocol was followed as per Method 2. Results were recorded by measuring the size of the zone of inhibition (ZOI) in mm.
(§6) The results presented in FIG. 1 and FIG. 2 illustrate the change in ear, nose, and throat (ENT) microorganism indicator strain zone of inhibition sizes. When K12 was cultured in the presence of various concentrations of galactose the ZOI sizes for several of the ENTR indicator strains increased markedly from the control condition (FIG. 1). M. catarrhalis TW1 and TW2 display similar changes in the ZOI sizes across the various concentrations of galactose. The change in TW1 ZOI size peaks at 1.5% galactose(w/v) (12 mm) then decreases at 2.0% galactose (w/v), whereas the change of TW2 ZOI size peaks at 2.0% galactose (w/v) (11 mm). The change in L. lactis T-21 ZOI sizes trend upwards relative to the concentration of galactose present in the culture medium.

Experiment [3] has as its system S. sobrinus OMZ176. In words: Deferred antagonism assay, producer S. salivarius K12. As to conditions: Streptococcus sobrinus, read-out: Size of zone inhibition normalised to control, S. sobrinus OMZ176. The method, then:
as §1, §2, §3, §4

In experiment [4] the test system is S. pyogenes M76. The experiment in a line: Dose response deferred antagonism assay, producer M18. As to conditions: 1.5% (w/v) galactose, largest.
For experiment [5], the system named is microorganisms associated with skin, dental, ENTR. In words: Dose response assay, raffinose vs equimolar trimix and individual saccharides, K12. As to conditions: equimolar concentration. The protocol: as §5, with “mm. […]” for “mm.”
The subject of experiment [6] is P. aeruginosa I2. The experiment in a line: Dose response deferred antagonism assay, producer M18. As to conditions: 1.5% (w/v) raffinose.
In experiment [7] the test system is H. influenzae TW5. The experiment in a line: Dose response deferred antagonism assay, producer K12. The method, then: as §1, §2, §5, §6

Broadly, the zone of inhibition is the size of the clear area around the sample on an inoculated plate. Turning to `O=C[C@H](O)[C@@H](O)[C@@H](O)[C@H](O)CO` [Galactose, D-galactose], in experiment [1] (Galactose 0.5% w/w), the zone of inhibition at 0.5 % strength turned out to be 0 mm. For the same molecule, the zone of inhibition at 1.25 % strength in experiment [1] (Galactose 1.25% w/w) and in experiment [3] (Galactose 1.25% w/w) was 0 mm throughout. Besides, the zone of inhibition at 1.7 % strength in experiment [1] (Galactose 1.7% w/w) and in experiment [3] (Galactose 1.7% w/w) was 0 mm each time. In addition, the zone of inhibition at 2.5 % strength in experiment [1] (Galactose 2.5% w/w) and in experiment [3] (Galactose 2.5% w/w) was 0 mm throughout. The zone of inhibition at 3.3 % strength in experiment [1] (Galactose 3.3% w/w) and in experiment [3] (Galactose 3.3% w/w) was 0 mm in each case. The zone of inhibition at 5 % strength in experiment [1] (Galactose 5% w/w) and in experiment [3] (Galactose 5% w/w) was 0 mm each time. The “S. pyogenes M57 ZOI sizes vs control condition” value in experiment [2] is reported as “increase”. Besides, the “S. pyogenes M76 zone of inhibition” value in experiment [4] was 14 mm.
Take `OC[C@H]1O[C@H](OC[C@H]2O[C@H](O[C@]3(CO)O[C@H](CO)[C@@H](O)[C@@H]3O)[C@H](O)[C@@H](O)[C@@H]2O)[C@H](O)[C@@H](O)[C@H]1O` [Raffinose, D-(+) Raffinose pentahydrate]: the “inhibitory activity of K12 compared to equivalent composition of the three monomeric saccharides” value in experiment [5] was “better inhibitory activity”. In experiment [6], the “P. aeruginosa I2 ZOI” value came out at 10 mm. Also, the “change in ZOI size for H. influenzae TW5” value in experiment [7] (1.5% raffinose (w/v), peak) stood at 12 mm. In experiment [7] (2% raffinose (w/v)), the “TW5 ZOI size change” value is on record as 0 mm.
